# pIC50: −log10 of the molar value. Structures can show the parent of a compound that is named as a salt.
# Biological target: T1, H^+/K^+-ATPase (Sus scrofa, UniProt P19156)
# T1 construct: used as an enzyme source of the in vitro enzyme reaction assay of proton pump; from tissue; host or cells: hog gastric fundic mucosa (membrane vesicles, lyophilized)
# Assay: Inhibitory effects on proton pump (H^+/K^+-ATPase) activity, hog gastric vesicles
# Type: biochemical
# Details: K^+ stimulated H^+/K^+-ATPase activity, hog gastric vesicle, Pi measured at 620 nm
# Protocol: Preparation of Gastric Proton Pump Vesicles
# The hog fundic regions containing parietal and peptic cells were scraped with slide-glass. The collected cells were suspended in 10 ml of 0.25M sucrose buffer and homogenized using a tight-fitting Teflon-glass homogenizer. The homogenate was centrifuged for 35 min at 8,000 rpm and the pellet was discarded. The supernatant was further centrifuged for 75 min at 25,000 rpm. The resulting pellets were re-suspended in the sucrose buffer (10 ml), and then the suspension was laid onto discontinuous density gradients consisting of 0.25M sucrose buffer and isolation medium containing 9% Ficoll (w/w). After being centrifuged for 3 hours and 15 minutes at 100,000×g, the material at the interface of sucrose buffer and Ficoll solution was collected and then centrifuged for 40 minutes at 100,000×g. The resulting pellets were re-suspended in 1 ml of 5 mM Hepes/Tris buffer (pH 6.1). This material was lyophilized and stored at −70° C. and used as an enzyme source of the in vitro enzyme reaction assay of proton pump.
# 1-2. Measurement of Inhibitory Effects on Proton Pump (H+/K+-ATPase) activity
# The inhibitory effects of the compounds of the present invention against proton pump activity were evaluated in 96-well plate. In this assay, the K^+ specific H^+/K^+-ATPase activity was calculated based on the difference between the activity of H^+/K^+-ATPase activity with K^+ and without K^+ ion. In 96-well plate, 1% dimethylsulfoxide (DMSO) in buffer was added to negative and positive control groups and the diluted compounds of the present invention in buffer were added to test group. All assays were performed in 100 μl reaction volume at room temperature, and the hog gastric vesicle was kept in ice before use. At the beginning of the reaction, 10 μl of reaction buffer containing 1% DMSO was added to the negative and positive control groups and to each concentration of compounds in the test group. Then lyophilized vesicle in 5 mM Pipes/Tris buffer (pH 6.1) was pre-incubated in the presence of various concentrations of test compounds. After a 5 minute incubation, negative and positive buffers were respectively added to the previous reaction mixture. As the substrate, ATP was added to the reaction buffer, and incubated for 30 minutes at 37° C. Enzymatic activity was stopped by the addition of colorimetric reagent (2× malachite green, 1× ammonium molybdate, 1× polyvinyl alcohol, 2× H2O) and the amount of mono phosphate (Pi) in the reaction was measured at 620 nm using the micro plate reader (Genios Pro, TECAN). The difference between the Pi production with K^+ and without K^+ is taken as K^+ stimulated H^+/K^+-ATPase activity.
# T1 sequence (P19156 2-1034 limits assumed): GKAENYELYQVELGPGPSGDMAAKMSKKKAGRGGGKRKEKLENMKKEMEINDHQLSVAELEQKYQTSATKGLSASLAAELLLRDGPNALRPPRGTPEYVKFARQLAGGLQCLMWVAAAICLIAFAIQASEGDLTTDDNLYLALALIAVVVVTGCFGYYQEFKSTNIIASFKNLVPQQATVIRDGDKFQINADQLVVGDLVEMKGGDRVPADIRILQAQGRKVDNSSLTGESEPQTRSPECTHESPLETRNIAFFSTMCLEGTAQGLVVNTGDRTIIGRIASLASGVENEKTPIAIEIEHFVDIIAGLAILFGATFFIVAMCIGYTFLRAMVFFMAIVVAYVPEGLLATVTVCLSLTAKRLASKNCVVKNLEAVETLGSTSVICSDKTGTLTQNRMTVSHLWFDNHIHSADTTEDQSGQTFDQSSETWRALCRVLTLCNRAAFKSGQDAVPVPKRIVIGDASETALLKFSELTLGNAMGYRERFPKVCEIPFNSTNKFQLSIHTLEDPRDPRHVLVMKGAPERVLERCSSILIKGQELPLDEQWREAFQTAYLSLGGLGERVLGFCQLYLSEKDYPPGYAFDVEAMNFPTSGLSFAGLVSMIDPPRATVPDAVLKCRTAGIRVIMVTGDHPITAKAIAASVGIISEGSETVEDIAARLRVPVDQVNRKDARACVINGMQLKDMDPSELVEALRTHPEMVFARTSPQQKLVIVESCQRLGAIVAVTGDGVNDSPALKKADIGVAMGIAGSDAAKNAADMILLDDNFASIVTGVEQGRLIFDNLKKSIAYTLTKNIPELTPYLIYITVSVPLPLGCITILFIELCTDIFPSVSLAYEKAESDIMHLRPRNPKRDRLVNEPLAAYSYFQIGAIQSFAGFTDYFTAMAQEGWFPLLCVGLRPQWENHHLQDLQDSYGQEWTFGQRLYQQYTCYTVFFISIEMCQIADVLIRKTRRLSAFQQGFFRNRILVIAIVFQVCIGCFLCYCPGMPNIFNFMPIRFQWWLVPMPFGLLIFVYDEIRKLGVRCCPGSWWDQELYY
# T1 sequence (P18434 whole entry partner): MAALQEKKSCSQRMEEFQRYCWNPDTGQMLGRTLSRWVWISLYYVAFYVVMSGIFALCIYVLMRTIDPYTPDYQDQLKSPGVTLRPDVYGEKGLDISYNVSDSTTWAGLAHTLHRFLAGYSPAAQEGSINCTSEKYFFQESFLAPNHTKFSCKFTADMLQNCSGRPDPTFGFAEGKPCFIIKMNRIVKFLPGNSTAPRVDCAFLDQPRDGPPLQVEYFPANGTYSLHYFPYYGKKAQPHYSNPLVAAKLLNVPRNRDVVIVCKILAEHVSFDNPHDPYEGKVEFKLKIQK
row,Compound,pIC50
1,"Cc1cccc(COc2ccnc3c(C)c(C)n(Cc4ccccc4)c23)c1 [Example 144, 1-benzyl-2,3-dimethyl-7-(3-methylbenzyloxy)-1H-pyrrolo[3,2-b]pyridine hydrochloride]",6.62
2,"CCOc1ccccc1COc1ccnc2c(C)c(C)n(CC3CCC3)c12 [Example 163, 1-cyclobutylmethyl-7-(2-ethoxybenzyloxy)-2,3-dimethyl-1H-pyrrolo[3,2-b]pyridine hydrochloride]",6.00
3,"Cc1c(C)n(Cc2ccc3ccccc3c2)c2c(N3CCc4ccccc4C3)ccnc12 [Example 2, 1-(2-naphthylmethyl)-7-(1,2,3,4-tetrahydroisoquinolin-2-yl)-2,3-dimethyl-1H-pyrrolo[3,2-b]pyridine hydrochloride]",5.97
4,"Cc1c(C)n(CC2CC2)c2c(OCc3ccc4c(c3)OCO4)ccnc12 [Example 121, 7-(benzo[1,3]dioxol-5-ylmethoxy)-1-cyclopropylmethyl-2,3-dimethyl-1H-pyrrolo[3,2-b]pyridine hydrochloride]",6.49
5,"COCCn1c(C)c(C)c2nccc(OCc3ccc(F)cc3)c21 [Example 123, 7-(4-fluorobenzyloxy)-1-(2-methoxyethyl)-2,3-dimethyl-1H-pyrrolo[3,2-b]pyridine methanesulfonate]",7.22
6,"COCCn1c(C)c(C)c2nccc(OCc3ccc(F)cc3)c21 [Example 126, 7-(4-fluorobenzyloxy)-1-(2-methoxyethyl)-2,3-dimethyl-1H-pyrrolo[3,2-b]pyridine nitrate]",7.30
7,"Cc1c(C)n(Cc2ccc(F)cc2)c2c(OCc3ccc(Cl)cc3)ccnc12 [Example 91, 7-(4-chlorobenzyloxy)-1-(4-fluorobenzyl)-2,3-dimethyl-1H-pyrrolo[3,2-b]pyridine hydrochloride]",6.34
8,"COCCn1c(C)c(C)c2nccc(OCc3ccc(F)cc3)c21 [Example 132, 7-(4-fluorobenzyloxy)-1-(2-methoxyethyl)-2,3-dimethyl-1H-pyrrolo[3,2-b]pyridine oxalate]",7.30
9,"Cc1ccc(Cn2c(C)c(C)c3nccc(OCc4ccc(Br)cc4)c32)cc1 [Example 224, 7-(4-bromobenzyloxy)-2,3-dimethyl-1-(4-methylbenzyl)-1H-pyrrolo[3,2-b]pyridine hydrochloride]",6.92
10,"COCCn1c(C)c(C)c2nccc(OCc3ccc(F)cc3)c21 [Example 128, 7-(4-fluorobenzyloxy)-1-(2-methoxyethyl)-2,3-dimethyl-1H-pyrrolo[3,2-b]pyridine maleate]",7.30
11,"COCCn1c(C)c(C)c2nccc(N3CCc4ccccc4C3)c21 [Example 5, 1-(2-methoxyethyl)-7-(1,2,3,4-tetrahydroisoquinolin-2-yl)-2,3-dimethyl-1H-pyrrolo[3,2-b]pyridine hydrochloride]",6.49
12,"Cc1c(C)n(Cc2ccc(C(C)(C)C)cc2)c2c(OCc3ccc(Cl)cc3)ccnc12 [Example 79, 1-(4-tert-butylbenzyl)-7-(4-chlorobenzyloxy)-2,3-dimethyl-1H-pyrrolo[3,2-b]pyridine hydrochloride]",5.80
13,"CC(C)=CCn1c(C)c(C)c2nccc(OCc3ccc(Cl)cc3)c21 [Example 84, 7-(4-chlorobenzyloxy)-2,3-dimethyl-1-(3-methylbut-2-enyl)-1H-pyrrolo[3,2-b]pyridine hydrochloride]",6.41
14,"COc1cccc(Cn2c(C)c(C)c3nccc(OCc4ccc(Cl)cc4)c32)c1 [Example 92, 7-(4-chlorobenzyloxy)-1-(3-methoxybenzyl)-2,3-dimethyl-1H-pyrrolo[3,2-b]pyridine hydrochloride]",7.30
15,"CCOc1ccccc1COc1ccnc2c(C)c(C)n(Cc3cccc(OC)c3)c12 [Example 177, 7-(2-ethoxybenzyloxy)-1-(3-methoxybenzyl)-2,3-dimethyl-1H-pyrrolo[3,2-b]pyridine hydrochloride]",6.54
16,"Cc1c(C)n(Cc2ccccc2)c2c(OCc3cc(F)cc(F)c3)ccnc12 [Example 195, 1-benzyl-7-(3,5-difluorobenzyloxy)-2,3-dimethyl-1H-pyrrolo[3,2-b]pyridine hydrochloride]",6.17
17,"COc1cccc(Cn2c(C)c(C)c3nccc(OCc4ccc5c(c4)OCO5)c32)c1 [Example 119, 7-(benzo[1,3]dioxol-5-ylmethoxy)-1-(3-methoxybenzyl)-2,3-dimethyl-1H-pyrrolo[3,2-b]pyridine hydrochloride]",6.64

row,Compound,pIC50
1,"COCCn1c(C)c(C)c2nccc(OCc3ccc(F)cc3)c21 [Example 124, 7-(4-fluorobenzyloxy)-1-(2-methoxyethyl)-2,3-dimethyl-1H-pyrrolo[3,2-b]pyridine benzenesulfonate]",7.30
2,"CCOc1ccccc1COc1ccnc2c(C)c(C)n(CC3CC3)c12 [Example 161, 1-cyclopropylmethyl-7-(2-ethoxybenzyloxy)-2,3-dimethyl-1H-pyrrolo[3,2-b]pyridine hydrochloride]",6.24
3,"COCCn1c(C)c(C)c2nccc(OCc3ccc(F)cc3)c21 [Example 133, 7-(4-fluorobenzyloxy)-1-(2-methoxyethyl)-2,3-dimethyl-1H-pyrrolo[3,2-b]pyridine hydrobromide]",7.22
4,"1-(3-methylbuten-2-yl)-7-(1,2,3,4-tetrahydroisoquinolin-2-yl)-2,3-dimethyl-1H-pyrrolo[3,2-b]pyridine hydrochloride [Example 16]",6.72
5,"Cc1c(C)n(Cc2ccc(Cl)cc2)c2c(OCc3ccc(F)cc3)ccnc12 [Example 33, 1-(4-chlorobenzyl)-7-(4-fluorobenzyloxy)-2,3-dimethyl-1H-pyrrolo[3,2-b]pyridine hydrochloride]",6.19
6,"CC(C)=CCn1c(C)c(C)c2nccc(OCc3ccc(Cl)cc3Cl)c21 [Example 135, 7-(2,4-dichlorobenzyloxy)-2,3-dimethyl-1-(3-methylbut-2-enyl)-1H-pyrrolo[3,2-b]pyridine hydrochloride]",6.82
7,"C=CCn1c(C)c(C)c2nccc(OCc3cccc(C)c3)c21 [Example 155, 1-allyl-2,3-dimethyl-7-(3-methylbenzyloxy)-1H-pyrrolo[3,2-b]pyridine hydrochloride]",6.24
8,"C=CCn1c(C)c(C)c2nccc(OCc3ccccc3OCC)c21 [Example 164, 1-allyl-7-(2-ethoxybenzyloxy)-2,3-dimethyl-1H-pyrrolo[3,2-b]pyridine hydrochloride]",5.52
9,"Cc1c(C)n(Cc2cccc(Cl)c2)c2c(OCc3ccc(Br)cc3)ccnc12 [Example 226, 7-(4-bromobenzyloxy)-1-(3-chlorobenzyl)-2,3-dimethyl-1H-pyrrolo[3,2-b]pyridine hydrochloride]",6.35
10,"CCCn1c(C)c(C)c2nccc(OCc3cccc(C)c3)c21 [Example 153, 2,3-dimethyl-7-(3-methylbenzyloxy)-1-propyl-1H-pyrrolo[3,2-b]pyridine hydrochloride]",5.99
11,"Cc1c(C)n(Cc2ccncc2)c2c(OCc3ccc(Cl)cc3)ccnc12 [Example 80, 7-(4-chlorobenzyloxy)-2,3-dimethyl-1-(pyridin-4-ylmethyl)-1H-pyrrolo[3,2-b]pyridine hydrochloride]",5.54
12,"CCn1c(C)c(C)c2nccc(OCc3ccc(Cl)cc3Cl)c21 [Example 137, 7-(2,4-dichlorobenzyloxy)-1-ethyl-2,3-dimethyl-1H-pyrrolo[3,2-b]pyridine hydrochloride]",7.22
13,"Cc1c(C)n(CC2OCCO2)c2c(OCc3ccc(Cl)cc3)ccnc12 [Example 87, 7-(4-chlorobenzyloxy)-1-(1,3-dioxolan-2-ylmethyl)-2,3-dimethyl-1H-pyrrolo[3,2-b]pyridine hydrochloride]",6.80
14,"CCOc1ccccc1COc1ccnc2c(C)c(C)n(Cc3cccc(F)c3)c12 [Example 178, 1-(3-fluorobenzyl)-7-(2-ethoxybenzyloxy)-2,3-dimethyl-1H-pyrrolo[3,2-b]pyridine hydrochloride]",6.08
15,"Cc1c(C)n(Cc2ccccc2)c2c(OCc3ccc4c(c3)OCO4)ccnc12 [Example 115, 7-(benzo[1,3]dioxol-5-ylmethoxy)-1-benzyl-2,3-dimethyl-1H-pyrrolo[3,2-b]pyridine hydrochloride]",6.89
16,"CCCn1c(C)c(C)c2nccc(NCc3ccc(F)cc3)c21 [Example 260, N-(2,3-dimethyl-1-propyl-1H-pyrrolo[3,2-b]pyridin-7-yl)-4-fluorobenzylamine hydrochloride]",5.92

# From US7642269B2, “Pyrrolo[3,2-B]pyridine derivatives and processes for the preparation thereof” (Yuhan Corporation, priority 2005, dated 2010)
